Measured values: patent US20090036444A1, “5-5-Membered fused heterocyclic compound and use thereof as HCV polymerase inhibitor” (priority 2003, published 2009)
Counter-ions that a name gives are not always drawn. Like-named read-outs stand apart in the source and are kept apart here.

Tests used:
[1] = molecular target: T1, HCV polymerase H544 1b 3X (Hepatitis C virus genotype 1b, UniProt P26663); assay: Assay of enzyme (HCV polymerase) inhibitory activity, H544 1b 3X; type: biochemical, HCV BK strain
T1 construct: a region encoding NS5B (J Virol 1991 March, 65(3), 1105-13, 544 amino acids after deletion of 47 amino acids on the C-terminal); 6 His (C); made in house; host or cells: Escherichia coli
T1 sequence (P26663 2420-2963): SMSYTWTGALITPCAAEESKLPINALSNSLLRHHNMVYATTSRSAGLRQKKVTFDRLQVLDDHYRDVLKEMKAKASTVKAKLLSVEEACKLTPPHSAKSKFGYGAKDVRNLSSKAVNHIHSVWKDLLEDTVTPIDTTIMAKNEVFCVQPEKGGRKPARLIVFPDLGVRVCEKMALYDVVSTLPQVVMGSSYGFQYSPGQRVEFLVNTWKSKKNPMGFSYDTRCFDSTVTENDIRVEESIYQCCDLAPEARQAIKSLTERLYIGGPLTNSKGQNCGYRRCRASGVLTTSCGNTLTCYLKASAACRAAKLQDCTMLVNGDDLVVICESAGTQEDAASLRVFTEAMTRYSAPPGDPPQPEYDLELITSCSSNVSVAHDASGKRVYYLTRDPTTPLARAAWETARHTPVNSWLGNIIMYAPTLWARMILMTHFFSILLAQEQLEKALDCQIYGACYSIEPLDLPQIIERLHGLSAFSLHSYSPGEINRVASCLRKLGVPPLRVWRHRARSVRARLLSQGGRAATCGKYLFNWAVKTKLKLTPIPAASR
From the text: The evaluation of the HCV polymerase inhibitory activity of the compound of the present invention is explained in the following. This polymerase is an enzyme coded for by the non-structural protein region called NS5B on the genome RNA of HCV (EMBO J., 15:12-22, 1996).
Using, as a template, a cDNA clone corresponding to the full length genome RNA of HCV BK strain obtained from the blood of a patient with hepatitis C, a region encoding NS5B (J Virol 1991 March, 65(3), 1105-13, 544 amino acids after deletion of 47 amino acids on the C-terminal) was amplified by PCR. The objective gene was prepared by adding a 6 His tag {base pair encoding 6 continuous histidine (His)} to the 3′ end thereof and transformed to Escherichia coli. The Escherichia coli capable of producing the objective protein was cultured. The obtained cells were suspended in a buffer solution and crushed in a microfluidizer. The supernatant was obtained by centrifugation and applied to various column chromatographys {mono-S, Sephacryl S-200 (Pharmacia)}, inclusive of metal chelate chromatography, to give a standard enzyme product.
Using a synthetic primer designed based on the sequence of HCV genomic 3′ untranslated region, a DNA fragment (148 bp) containing polyU and 3′X sequence was entirely synthesized and cloned into plasmid pBluescript SK II (+) (Stratagene). The cDNA encoding full length NS5B, which was prepared in i) above, was digested with restriction enzyme KpnI to give a cDNA fragment containing the nucleotide sequence of from the restriction enzyme cleavage site to the termination codon. This cDNA fragment was inserted into the upstream of 3′ untranslated region of the DNA in pBluescript SK II(+) and ligated. The about 450 bp inserted DNA sequence was used as a template in the preparation of substrate RNA. This plasmid was cleaved immediately after the 3′X sequence, linearized and purified by phenol-chloroform treatment and ethanol precipitation to give DNA.
RNA was synthesized (37° C., 3 hr) by run-off method using this purified DNA as a template, a promoter of pBluescript SK II(+), MEGAscript RNA synthesis kit (Ambion) and T7 RNA polymerase. DNase I was added and the mixture was incubated for 1 hr. The template DNA was removed by decomposition to give a crude RNA product. This crude product was treated with phenol-chloroform and purified by ethanol precipitation to give the objective substrate RNA.
This RNA was applied to formaldehyde denaturation agarose gel electrophoresis to confirm the quality thereof and preserved at −80° C.
A test substance (compound of the present invention) and a reaction mixture (30 μl) having the following composition were reacted at 25° C. for 90 min. 10% Trichloroacetic acid at 4° C. and 1% sodium pyrophosphate solution (150 μl) were added to this reaction mixture to stop the reaction. The reaction mixture was left standing in ice for 15 min to insolubilize RNA. This RNA was trapped on a glass filter (Whatman GF/C and the like) upon filtration by suction. This filter was washed with a solution containing 1% trichloroacetic acid and 0.1% sodium pyrophosphate, washed with 90% ethanol and dried. A liquid scintillation cocktail (Packard) was added and the radioactivity of RNA synthesized by the enzyme reaction was measured on a liquid scintillation counter.
The HCV polymerase inhibitory activity (IC50) of the compound of the present invention was calculated from the values of radioactivity of the enzyme reaction with and without the test substance.
The results are shown in Table 18, wherein each symbol means that IC50 falls within the following range.
Reaction mixture: HCV polymerase (0.5 μg/ml) obtained in i), substrate RNA (5 μg/ml) obtained in ii), ATP (50 μM), GTP (50 μM), CTP (50 μM), UTP (2 μM), [5,6-^3H] UTP (46 Ci/mmol (Amersham), 1 μCi) 20 mM Tris-HCl (pH 7.5), EDTA (1 mM), MgCl2 (5 mM), NaCl (50 mM), DTT (1 mM), BSA (0.01%)

[2] = molecular target: T2, HCV polymerase H544 1a 3X (UniProt P27958); assay: Assay of enzyme (HCV polymerase) inhibitory activity, H544 1a 3X; type: biochemical
T2 construct: fused on or other part: 6 His tag at the C-terminus, for the BK (1b) enzyme

[3] = 25° C., 90 min, [5,6-3H]UTP incorporation, read-out: H544 1a 3X IC50
[4] = read-out: H544 1a 3X IC50, 25° C., 90 min, [5,6-3H]UTP incorporation

Structure (SMILES)	IC50 [1] [nM]	IC50 [2, 3] [nM]	IC50 [2, 4] [nM]
O=C(Cn1c(-c2ccc(OCc3ccccc3)cc2)c(C2CCCCC2)c2sc(C(=O)O)cc21)Nc1ccc(N2CCOCC2)cc1 [Example 51, 5-(4-benzyloxyphenyl)-6-cyclohexyl-4-[(4-morpholinophenylcarbamoyl)methyl]-4H-thieno[3,2-b]pyrrole-2-carboxylic acid hydrochloride]	< 100	< 100	–
CC(C)(C)NC(=O)Cn1c(-c2ccc(OCc3ccccc3)cc2)c(C2CCCCC2)c2sc(C(=O)O)cc21 [Example 44, 5-(4-benzyloxyphenyl)-4-(tert-butylcarbamoylmethyl)-6-cyclohexyl-4H-thieno[3,2-b]pyrrole-2-carboxylic acid]	100 to 1000	100 to 1000	–
CN(C)C(=O)Cn1c(-c2ccccc2OCc2ccccc2)c(C2CCCCC2)c2sc(C(=O)O)cc21 [Example 36, 5-(2-benzyloxyphenyl)-6-cyclohexyl-4-dimethylcarbamoylmethyl-4H-thieno[3,2-b]pyrrole-2-carboxylic acid]	100 to 1000	100 to 1000	–
CN(C(=O)CN1CCOCC1)c1ccc(N2CCOCC2)c(COc2ccc(-c3c(C4CCCCC4)c4sc(C(=O)O)cc4n3C)cc2)c1 [Example 57, 6-cyclohexyl-4-methyl-5-(4-{5-[N-methyl-N-(2-morpholinoacetyl)amino]-2-morpholinobenzyloxy}phenyl)-4H-thieno[3,2-b]pyrrole-2-carboxylic acid dihydrochloride]	< 100	–	< 100
O=C(O)c1cc2c(s1)c(C1CCCCC1)c(-c1ccc(OCc3ccccc3)cc1)n2CC(=O)N1CCC(N2CCCCC2)CC1 [Example 54, 5-(4-benzyloxyphenyl)-4-[2-(1,4′-bipiperidinyl-1′-yl)-2-oxoethyl]-6-cyclohexyl-4H-thieno[3,2-b]pyrrole-2-carboxylic acid hydrochloride]	< 100	< 100	–
O=C(O)c1cc2c(s1)c(C1CCCCC1)c(-c1ccc(OCc3ccccc3)cc1)n2CCN1CCOCC1 [Example 47, 5-(4-benzyloxyphenyl)-6-cyclohexyl-4-(2-morpholinoethyl)-4H-thieno[3,2-b]pyrrole-2-carboxylic acid]	100 to 1000	100 to 1000	–
COc1ccc(-c2c(C3CCCCC3)c3sc(C(=O)O)cc3n2CC(=O)N2CCC(N(C)C)CC2)cc1 [Example 27, 6-cyclohexyl-4-(4-dimethylaminopiperidino)carbonylmethyl-5-(4-methoxyphenyl)-4H-thieno[3,2-b]pyrrole-2-carboxylic acid]	< 100	< 100	–
CN(CCN1CCCCC1)CCn1c(-c2ccc(OCc3ccccc3)cc2)c(C2CCCCC2)c2sc(C(=O)O)cc21 [Example 59, 5-(4-benzyloxyphenyl)-6-cyclohexyl-4-{2-[N-methyl-N-(2-piperidinoethyl)amino]ethyl}-4H-thieno[3,2-b]pyrrole-2-carboxylic acid dihydrochloride]	< 100	–	100 to 1000
Cn1c(-c2ccc(OCc3cc(N)ccc3N3CCN(S(C)(=O)=O)CC3)cc2)c(C2CCCCC2)c2sc(C(=O)O)cc21 [Example 19, 5-(4-[5-amino-2-(4-methanesulfonylpiperazin-1-yl)benzyloxy]phenyl)-6-cyclohexyl-4-methyl-4H-thieno[3,2-b]pyrrole-2-carboxylic acid hydrochloride]	< 100	< 100	–
O=C(O)c1cc2nc(-c3ccc(OCc4cc(N5CCCC5=O)ccc4N4CCOCC4)cc3)n(C3CCCCC3)c2s1 [Example 5, 3-cyclohexyl-2-{4-[2-morpholino-5-(2-oxopyrrolidin-1-yl)benzyloxy]phenyl}-3H-thieno[2,3-d]imidazole-5-carboxylic acid]	100 to 1000	100 to 1000	–
CC(=O)N(C)c1ccc(N2CCN(S(C)(=O)=O)CC2)c(COc2ccc(-c3c(C4CCCCC4)c4sc(C(=O)O)cc4n3C)cc2)c1 [Example 20, 5-{4-[5-(N-acetyl-N-methylamino)-2-(4-methanesulfonylpiperazin-1-yl)benzyloxy]phenyl}-6-cyclohexyl-4-methyl-4H-thieno[3,2-b]pyrrole-2-carboxylic acid hydrochloride]	< 100	< 100	–
CN(C)CCn1c(-c2ccc(OCc3ccccc3)cc2)c(C2CCCCC2)c2sc(C(=O)O)cc21 [Example 46, 5-(4-benzyloxyphenyl)-6-cyclohexyl-4-(2-dimethylaminoethyl)-4H-thieno[3,2-b]pyrrole-2-carboxylic acid]	100 to 1000	100 to 1000	–
Cn1c(-c2ccc(OCc3cc(S(C)(=O)=O)ccc3N3CCOCC3)cc2)c(C2CCCCC2)c2sc(C(=O)O)cc21 [Example 23, 6-cyclohexyl-5-[4-(5-methanesulfonyl-2-morpholinobenzyloxy)phenyl]-4-methyl-4H-thieno[3,2-b]pyrrole-2-carboxylic acid hydrochloride]	< 100	< 100	–
O=C(O)c1cc2c(s1)c(C1CCCCC1)c(-c1ccc(OCc3ccccc3)cc1)n2CC(=O)N1CCN(C2CCCCC2)CC1 [Example 52, 5-(4-benzyloxyphenyl)-6-cyclohexyl-4-[2-(4-cyclohexylpiperazin-1-yl)-2-oxoethyl]-4H-thieno[3,2-b]pyrrole-2-carboxylic acid hydrochloride]	< 100	< 100	–
COc1ccc(-c2c(C3CCCCC3)c3sc(C(=O)O)cc3n2CC(=O)N2CCOCC2)cc1 [Example 25, 6-cyclohexyl-5-(4-methoxyphenyl)-4-morpholinocarbonylmethyl-4H-thieno[3,2-b]pyrrole-2-carboxylic acid]	< 100	100 to 1000	–
CN(C)C(=O)Cn1c(-c2ccc(OCc3ccccc3)cc2)c(C2CCCCC2)c2sc(C(=O)O)cc21 [Example 14, 5-(4-benzyloxyphenyl)-6-cyclohexyl-4-dimethylcarbamoylmethyl-4H-thieno[3,2-b]pyrrole-2-carboxylic acid]	< 100	< 100	–
O=C(O)c1cc2nc(-c3ccc(OCc4cc(N5CCCC5=O)ccc4-c4ccc(Cl)cc4)cc3)n(C3CCCCC3)c2s1 [Example 3, 2-{4-[4′-chloro-4-(2-oxopyrrolidin-1-yl)biphenyl-2-ylmethoxy]phenyl}-3-cyclohexyl-3H-thieno[2,3-d]imidazole-5-carboxylic acid hydrochloride]	< 100	–	100 to 1000
CN(C)CCn1c(-c2ccc(OCc3cc(S(C)(=O)=O)ccc3N3CCOCC3)cc2)c(C2CCCCC2)c2sc(C(=O)O)cc21 [Example 56, 6-cyclohexyl-4-(2-dimethylaminoethyl)-5-[4-(5-methanesulfonyl-2-morpholinobenzyloxy)phenyl]-4H-thieno[3,2-b]pyrrole-2-carboxylic acid dihydrochloride]	< 100	–	< 100
COCCn1c(-c2ccc(OCc3ccccc3)cc2)c(C2CCCCC2)c2sc(C(=O)O)cc21 [Example 49, 5-(4-benzyloxyphenyl)-6-cyclohexyl-4-(2-methoxyethyl)-4H-thieno[3,2-b]pyrrole-2-carboxylic acid]	100 to 1000	100 to 1000	–
O=C(O)c1cc2c(s1)c(C1CCCCC1)c(-c1ccc(OCc3ccccc3)cc1)n2Cc1ccccc1 [Example 45, 4-benzyl-5-(4-benzyloxyphenyl)-6-cyclohexyl-4H-thieno[3,2-b]pyrrole-2-carboxylic acid]	100 to 1000	100 to 1000	–
